Laboratory results taken from ChEMBL document CHEMBL1129077 (J Med Chem, 1996).

Key:
[1] = target: T1, Transient receptor potential cation channel subfamily V member 1 (Rattus norvegicus, UniProt O35433); test: Displacement of [3H]RTX from Vanilloid receptor in Rat spinal cord membranes; type: cell membranes, Membrane
[2] = target: T2, Transient receptor potential cation channel subfamily V member 1 (Homo sapiens, UniProt Q8NER1); test: Effect on cooperativity of Resiniferatoxin (RTX) binding (Hill coefficient); type: functional
[3] = target: T2, Transient receptor potential cation channel subfamily V member 1; test: Inhibitory constant for RTX binding to human spinal cord; type: functional, tissue-based
Rattus norvegicus = test: Desensitisation against RTX-induced ear edema formation 24 hr r post-administration; type: functional
[4] = target: T1, Transient receptor potential cation channel subfamily V member 1; test: Inhibitory constant for RTX binding to rat spinal cord; type: functional
[5] = target: T1, Transient receptor potential cation channel subfamily V member 1; test: Inhibition of [3H]- RTX binding to vanilloid receptor of rat urinary bladder; type: functional
[6] = target: T2, Transient receptor potential cation channel subfamily V member 1; test: Inhibition of [3H]- RTX binding to Vanilloid receptors from human spinal cord
[7] = target: T1, Transient receptor potential cation channel subfamily V member 1; test: Displacement of [3H]RTX binding from Vanilloid receptor of rat dorsal Root Ganglion (DRG) membranes; type: cell membranes, Membrane
[8] = The effect on the Cooperativity of Resiniferatoxin binding, as Quantitated by the Hill Coefficients.

T1 sequence (O35433 whole entry): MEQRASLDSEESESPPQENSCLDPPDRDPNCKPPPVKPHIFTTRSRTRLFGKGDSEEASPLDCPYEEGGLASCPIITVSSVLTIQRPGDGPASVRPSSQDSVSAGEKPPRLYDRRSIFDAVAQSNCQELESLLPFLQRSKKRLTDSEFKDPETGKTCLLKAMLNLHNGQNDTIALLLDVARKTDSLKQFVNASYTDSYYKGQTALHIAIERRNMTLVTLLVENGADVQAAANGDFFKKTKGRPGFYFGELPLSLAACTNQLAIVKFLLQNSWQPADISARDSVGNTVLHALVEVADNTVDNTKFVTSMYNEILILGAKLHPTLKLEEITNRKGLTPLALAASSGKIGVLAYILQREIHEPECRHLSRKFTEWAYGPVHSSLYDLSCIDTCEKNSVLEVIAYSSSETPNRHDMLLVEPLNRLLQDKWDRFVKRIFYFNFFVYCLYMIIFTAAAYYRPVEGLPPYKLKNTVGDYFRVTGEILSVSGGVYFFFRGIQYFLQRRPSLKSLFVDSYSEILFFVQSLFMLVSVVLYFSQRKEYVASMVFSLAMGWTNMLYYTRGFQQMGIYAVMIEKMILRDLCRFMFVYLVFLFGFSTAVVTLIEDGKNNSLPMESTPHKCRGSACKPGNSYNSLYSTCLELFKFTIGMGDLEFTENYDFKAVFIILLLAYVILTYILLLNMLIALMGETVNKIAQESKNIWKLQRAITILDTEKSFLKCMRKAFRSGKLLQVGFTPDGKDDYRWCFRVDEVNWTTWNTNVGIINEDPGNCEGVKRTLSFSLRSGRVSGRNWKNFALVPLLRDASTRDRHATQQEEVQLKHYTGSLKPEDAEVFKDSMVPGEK
T2 sequence (Q8NER1 whole entry): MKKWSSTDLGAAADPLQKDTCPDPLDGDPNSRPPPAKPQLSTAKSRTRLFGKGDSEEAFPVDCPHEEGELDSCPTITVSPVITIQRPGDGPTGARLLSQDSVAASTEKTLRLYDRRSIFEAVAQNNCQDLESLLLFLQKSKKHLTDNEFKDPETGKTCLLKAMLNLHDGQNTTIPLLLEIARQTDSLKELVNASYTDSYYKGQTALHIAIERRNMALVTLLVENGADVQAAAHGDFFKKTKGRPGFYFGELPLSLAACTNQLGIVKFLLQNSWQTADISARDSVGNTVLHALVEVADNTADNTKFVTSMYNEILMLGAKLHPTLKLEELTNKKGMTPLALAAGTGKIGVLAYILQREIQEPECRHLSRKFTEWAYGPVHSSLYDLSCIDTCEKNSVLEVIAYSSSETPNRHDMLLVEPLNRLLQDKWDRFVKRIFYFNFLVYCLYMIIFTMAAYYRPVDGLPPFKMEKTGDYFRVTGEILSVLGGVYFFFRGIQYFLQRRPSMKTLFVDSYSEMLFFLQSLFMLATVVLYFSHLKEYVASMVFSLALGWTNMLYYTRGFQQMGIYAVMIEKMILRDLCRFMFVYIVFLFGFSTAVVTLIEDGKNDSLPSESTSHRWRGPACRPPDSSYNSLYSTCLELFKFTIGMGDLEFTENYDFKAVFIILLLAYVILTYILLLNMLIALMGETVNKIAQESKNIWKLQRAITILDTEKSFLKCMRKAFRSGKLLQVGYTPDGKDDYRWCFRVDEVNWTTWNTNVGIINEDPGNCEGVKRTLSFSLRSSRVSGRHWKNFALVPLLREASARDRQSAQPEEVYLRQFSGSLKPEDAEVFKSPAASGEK

Structure (SMILES) | Ki [1] | Hill coefficient [2] | other results
Oc1cc2c(cc1O)CN(C(=S)NCCc1ccc(Cl)cc1)CCC2 [CAPSAZEPINE] | 1200 nM | 2.4 | –
COc1cc(CC(=O)OCC2=C[C@H]3[C@@H]4C(C)(C)[C@]4(OC(C)=O)[C@H](OC(=O)C4CCCCC4)[C@@H](C)[C@]3(O)[C@@H]3C=C(C)C(=O)[C@@]3(O)C2)ccc1O | 2200 nM | 1 | –
COc1cc(CC(=O)OCC2=C[C@H]3[C@@H]4C(C)(C)[C@]4(OC(C)=O)[C@H](OC(=O)c4ccccc4)[C@@H](C)[C@]3(O)[C@@H]3C=C(C)C(=O)[C@@]3(O)C2)ccc1O | 400 nM | 1.7 | –
COc1cc(CC(=O)OCC2=C[C@H]3[C@@H]4C(C)(C)[C@]4(OC(C)=O)[C@H](OC(=O)Cc4ccc(N=[N+]=[N-])cc4)[C@@H](C)[C@]3(O)[C@@H]3C=C(C)C(=O)[C@@]3(O)C2)ccc1O | 200 nM | 1.4 | –
COc1cc(CNC(=O)CCCC/C=C/C(C)C)ccc1O | – | 2 | –
COc1cc(CC(=O)OCC2=C[C@H]3[C@@H]4C(C)(C)[C@]4(OC(C)=O)[C@H](OC(=O)Cc4ccccc4)[C@@H](C)[C@]3(O)[C@@H]3C=C(C)[C@H](O)[C@@]3(O)C2)ccc1O | > 10000 nM | – | –
COc1cc(CC(=O)OCC2=C[C@H]3[C@@H]4C(C)(C)[C@]4(OC(C)=O)[C@H](OC(=O)c4ccc(N=[N+]=[N-])cc4)[C@@H](C)[C@]3(O)[C@@H]3C=C(C)C(=O)[C@@]3(O)C2)ccc1O | 200 nM | 1.5 | –
COc1cc(CC(=O)OCC2=C[C@H]3[C@@H]4C(C)(C)[C@]4(OC(C)=O)[C@H](OC(=O)Cc4ccccc4)[C@@H](C)[C@]3(O)[C@@H]3C=C(C)C(=O)[C@@]3(O)C2)ccc1O | – | 1.1 | Ki [3]: 0.45 nM; ED50 (Rattus norvegicus): 10 mg/kg; Ki [4]: 0.054 nM; Ki [5]: 2000 nM; Ki [6]: 6400 nM; Ki [7]: 600 nM
COc1cc(CC(=O)OCC2=C[C@H]3[C@@H]4C(C)(C)[C@]4(OC(C)=O)C(=O)[C@@H](C)[C@]3(O)[C@@H]3C=C(C)C(=O)[C@@]3(O)C2)ccc1O | > 10000 nM | – | –
C=C(C)[C@]12C[C@@H](C)[C@@]34O[C@](Cc5ccccc5)(O[C@@H]1[C@@H]3C=C(COC(=O)Cc1ccc(O)c(OC)c1)C[C@]1(O)C(=O)C(C)=CC41)O2 (single isomer, unassigned) [RESINIFERATOXIN] | 0.02 nM | – | Hill coefficient [8]: 2.3
COc1cc(CC(=O)OCC2=C[C@H]3[C@@H]4C(C)(C)[C@]4(OC(=O)Cc4ccccc4)[C@H](OC(=O)Cc4ccccc4)[C@@H](C)[C@]3(O)[C@@H]3C=C(C)C(=O)[C@@]3(O)C2)ccc1O | 300 nM | 1.3 | –
COc1cc(CC(=O)OCC2=C[C@H]3[C@@H]4C(C)(C)[C@]4(OC(=O)Cc4ccccc4)C(=O)[C@@H](C)[C@]3(O)[C@@H]3C=C(C)C(=O)[C@@]3(O)C2)ccc1O | 1300 nM | 0.9 | –
COc1cc(CC(=O)OCC2=C[C@H]3[C@@H]4C(C)(C)[C@]4(OC(C)=O)[C@H](OC(=O)Cc4ccccc4)[C@@H](C)[C@]3(O)[C@@H]3C=C(C)C(=O)[C@@]3(O)C2)ccc1OC(C)=O | 1700 nM | 1 | –
COc1cc(CC(=O)OCC2=C[C@H]3[C@@H]4C(C)(C)[C@]4(OC(C)=O)[C@H](OC(=O)CC4CCCCC4)[C@@H](C)[C@]3(O)[C@@H]3C=C(C)C(=O)[C@@]3(O)C2)ccc1O | 400 nM | 1.1 | –
